From ChEMBL document CHEMBL1141022, “1,2,3-Triazole derivatives as new cannabinoid CB1 receptor antagonists” (Bioorg Med Chem Lett, 2009)

Tests used:
Cannabinoid receptor 1 [1] = molecular target: T1, Cannabinoid receptor 1 (Homo sapiens, UniProt P21554); assay: Displacement of [3H]CP-55940 from human CB1 receptor expressed in HEK293 cells at 10 uM; format: cell-based
Homo sapiens = organism: Homo sapiens; assay: Selectivity ratio of IC50 for human CB2 receptor to IC50 for human CB1 receptor
Cannabinoid receptor 1 [2] = molecular target: T1, Cannabinoid receptor 1; assay: Antagonist activity at human CB1 receptor expressed in HEK293 cells assessed as inhibition of Eu-GTP binding; format: cell-based
Cannabinoid receptor 2 = Cannabinoid receptor 2 (Homo sapiens, UniProt P34972); assay: Displacement of [3H]CP-55940 from human CB2 receptor expressed in HEK293 cells; format: cell-based
Cannabinoid receptor 1 [3] = molecular target: T1, Cannabinoid receptor 1; assay: biochemical; format: cell-based, HEK293

T1 sequence (P21554 whole entry): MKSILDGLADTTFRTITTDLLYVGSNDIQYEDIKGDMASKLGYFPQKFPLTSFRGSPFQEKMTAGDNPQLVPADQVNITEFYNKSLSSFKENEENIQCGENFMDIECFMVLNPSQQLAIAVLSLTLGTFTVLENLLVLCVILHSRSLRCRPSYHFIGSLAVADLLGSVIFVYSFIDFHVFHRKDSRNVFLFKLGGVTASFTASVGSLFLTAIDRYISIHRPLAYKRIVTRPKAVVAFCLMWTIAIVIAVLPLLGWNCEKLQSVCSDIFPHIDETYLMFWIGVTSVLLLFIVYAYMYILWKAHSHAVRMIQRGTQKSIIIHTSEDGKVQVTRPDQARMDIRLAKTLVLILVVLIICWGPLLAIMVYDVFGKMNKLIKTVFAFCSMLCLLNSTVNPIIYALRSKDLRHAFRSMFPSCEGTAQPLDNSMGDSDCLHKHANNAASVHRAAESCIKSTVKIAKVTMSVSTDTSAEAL
Cannabinoid receptor 2, sequence (P34972 whole entry): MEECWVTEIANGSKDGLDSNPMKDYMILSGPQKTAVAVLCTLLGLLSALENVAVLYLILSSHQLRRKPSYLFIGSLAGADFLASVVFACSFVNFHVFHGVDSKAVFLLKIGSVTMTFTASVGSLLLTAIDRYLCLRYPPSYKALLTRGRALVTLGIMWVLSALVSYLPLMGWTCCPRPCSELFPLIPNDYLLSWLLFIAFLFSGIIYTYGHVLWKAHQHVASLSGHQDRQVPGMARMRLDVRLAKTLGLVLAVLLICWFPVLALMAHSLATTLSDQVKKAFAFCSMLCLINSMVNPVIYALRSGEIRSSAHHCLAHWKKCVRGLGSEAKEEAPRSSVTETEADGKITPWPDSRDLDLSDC

Structure (SMILES) | inhibition (Cannabinoid receptor 1 [1]) | Ratio IC50 (Homo sapiens) | EC50 (Cannabinoid receptor 1 [2]) | IC50 (Cannabinoid receptor 2) | IC50 (Cannabinoid receptor 1 [3])
O=C(Cn1nc(-c2ccc(Cl)cc2Cl)c(-c2ccc(Cl)cc2Cl)n1)N1CCCCC1 |  |  |  | 5900 nM | 
O=C(Cn1nnc(-c2ccc(Cl)cc2)c1-c1ccc(Cl)cc1)N1CCCCC1 | 33% | > 1000 |  |  | 
O=C(Cn1nc(-c2ccc(Cl)cc2Cl)c(-c2ccc(Cl)cc2Cl)n1)NCc1ccc(Cl)cc1 |  | > 1000 | 17.8 nM | > 10000 nM | 
O=C(Cn1nc(-c2ccc(Cl)cc2)c(-c2ccc(Cl)cc2Cl)n1)NCc1ccccc1F |  | > 1000 | 256 nM | > 10000 nM | 
O=C(Cn1nc(-c2ccc(Cl)cc2)c(-c2ccc(Cl)cc2Cl)n1)NCc1ccccc1 |  | > 1000 | 216 nM | > 10000 nM | 
O=C(NC1CCCCC1)n1nc(-c2ccc(Cl)cc2)c(-c2ccc(Cl)cc2)n1 | 19.9% | > 1000 |  |  | 
O=C(Cn1nc(-c2ccc(Cl)cc2Cl)c(-c2ccc(Cl)cc2Cl)n1)NCc1cccc(F)c1 |  | > 1000 | 35.1 nM | > 10000 nM | 
O=C(Cn1nc(-c2ccc(Cl)cc2Cl)c(-c2ccc(Cl)cc2Cl)n1)NCc1ccccc1F |  | > 1000 | 23.5 nM | > 10000 nM | 
O=C(NC12CC3CC(CC(C3)C1)C2)n1nc(-c2ccc(Cl)cc2)c(-c2ccc(Cl)cc2Cl)n1 | 34.5% | > 1000 |  |  | 
O=C(NC1CCCCC1)n1nc(-c2ccc(Cl)cc2Cl)c(-c2ccc(Cl)cc2Cl)n1 | 29.2% | > 1000 |  |  | 
O=C(NC12CC3CC(CC(C3)C1)C2)n1nc(-c2ccc(Cl)cc2Cl)c(-c2ccc(Cl)cc2Cl)n1 | 78.9% | > 1000 |  |  | 
O=C(Cn1nc(-c2ccc(Cl)cc2Cl)c(-c2ccc(Cl)cc2Cl)n1)NCc1ccccc1 |  | > 1000 | 87 nM | > 10000 nM | 
O=C(NC12CC3CC(CC(C3)C1)C2)n1nc(-c2ccc(Cl)cc2)c(-c2ccc(Cl)cc2)n1 | 19.7% | > 1000 |  |  | 
O=C(NCc1ccccc1)n1nc(-c2ccc(Cl)cc2Cl)c(-c2ccc(Cl)cc2Cl)n1 | 23.8% | > 1000 |  |  | 
O=C(Cn1nc(-c2ccc(Cl)cc2Cl)c(-c2ccc(Cl)cc2Cl)n1)NC1CCCCC1 |  | > 1000 | 204 nM | > 10000 nM | 

More lines, now with the values ahead:

inhibition (Cannabinoid receptor 1 [1]) | Ratio IC50 (Homo sapiens) | EC50 (Cannabinoid receptor 1 [2]) | IC50 (Cannabinoid receptor 2) | IC50 (Cannabinoid receptor 1 [3]) | Structure (SMILES)
64.1% | > 1000 |  |  |  | CCCCOC(=O)Cn1nnc(-c2ccc(Cl)cc2)c1-c1ccc(Cl)cc1
18.6% | > 1000 |  |  |  | O=C(NCc1ccccc1)n1nc(-c2ccc(Cl)cc2)c(-c2ccc(Cl)cc2Cl)n1
 | > 1000 | 50.7 nM | > 10000 nM |  | O=C(Cn1nc(-c2ccc(Cl)cc2Cl)c(-c2ccc(Cl)cc2Cl)n1)NCc1ccc(F)cc1
30.5% | > 1000 |  |  |  | O=C(NC1CCCCC1)n1nc(-c2ccc(Cl)cc2)c(-c2ccc(Cl)cc2Cl)n1
 | > 1000 | 56.2 nM | > 10000 nM |  | COc1ccc(CNC(=O)Cn2nc(-c3ccc(Cl)cc3Cl)c(-c3ccc(Cl)cc3Cl)n2)cc1
 | > 1000 | 12.2 nM | > 10000 nM |  | O=C(Cn1nc(-c2ccc(Cl)cc2Cl)c(-c2ccc(Cl)cc2Cl)n1)NCc1ccccc1Cl
46.1% | > 1000 |  |  |  | CCCCOC(=O)Cn1nnc(-c2ccc(Cl)cc2Cl)c1-c1ccc(Cl)cc1Cl
14.3% | > 1000 |  |  |  | O=C(Cn1nc(-c2ccc(Cl)cc2Cl)c(-c2ccc(Cl)cc2Cl)n1)Oc1ccccc1
 | > 1000 | 22 nM | > 10000 nM | 22.6 nM | O=C(Cn1nc(-c2ccc(Cl)cc2Cl)c(-c2ccc(Cl)cc2Cl)n1)NCc1cc(F)ccc1F
 | > 1000 | 235 nM | > 10000 nM |  | O=C(Cn1nc(-c2ccc(Cl)cc2)c(-c2ccc(Cl)cc2Cl)n1)NCc1ccc(F)cc1
 | > 1000 | 136 nM | > 10000 nM |  | O=C(Cn1nc(-c2ccc(Cl)cc2Cl)c(-c2ccc(Cl)cc2Cl)n1)Nc1ccccc1
55.7% | > 1000 |  |  |  | O=C(Cn1nnc(-c2ccc(Cl)cc2Cl)c1-c1ccc(Cl)cc1Cl)N1CCCCC1
 | > 1000 |  |  |  | CCCCOC(=O)Cn1nc(-c2ccc(Cl)cc2Cl)c(-c2ccc(Cl)cc2Cl)n1
